How the values were obtained:
E.G7-OVA tumor cells = test: Tumor re-challenge of long term survivors 149 days after OT-1 transfer; type: in vivo, mouse
From the text: To determine whether OT-1 cells are capable of long-term tumor protection, the long term survivors of the above experiment (FIG. 12) were re-challenged with a lethal dose of E.G7-OVA tumor cells 149 days after the initial adoptive transfer of the in vitro expanded OT-1 cells. Re-challenge induced OT-1 cell expansion at the site engrafted with E.G7-OVA tumor cells expressing ovalbumin antigen, thereby effectively controlling tumor growth (FIG. 21).

[1] = system: human T cells from peripheral blood mononuclear cells; test: Expansion of CMV pp65 reactive T cells from peripheral blood mononuclear cells; type: cell-based; conditions: for Percentage of total cell number relative to IL-2 alone on day 11: alone or with IL-2 2 ng/mL
From the text: At day eleven, cells were pooled and counted, and immunophenotyped at day 11 by flow cytometry by measuring expression of lineage (CD4, CD8) and differentiation (including CD45RA, CD45RO, CD95, CCR7, CD62L, TCF1, PD-1, TIM3, LAG3) markers.

breast TIL = test: CDR3 diversity of expanded breast TIL (iRepertoire sequencing); type: cell-based, human; conditions: 14 days in GREX 10 (FIGS. 32A-C)
Protocol: TIL were cultured for 14 days in GREX™10. […] The raw data were analyzed by iRepertoire using IRmap programs with a modified Smith-Waterman algorithm. Using CDR3algebra software, the calculation of shared CDR3s across samples with the indicated treatment was assessed. […] All CDR3 frequencies were scaled to 10 million reads to account for differences in read depth among samples. Data was normalized so that each uCDR3-VDJ combination was treated as a quantity of 1 regardless of read count, and then analyzed for V usage and J usage.

[2] = system: human tumor-infiltrating lymphocytes (TIL); test: Expansion of TIL ex vivo from human tumor fragments (pre-REP, 24-well plate); type: cell-based; conditions: for Percentage of total cell number relative to IL-2 alone on day 17: alone or with IL-2 6000 IU/mL
Protocol: Samples of human ovarian and colon tumors were obtained from the Cooperative Human Tissue Network (CHTN, c/o Vanderbilt University Medical Center, Nashville, Tenn.). Solid tumor specimens were carefully dissected free of surrounding fatty and necrotic areas. The tumors were sliced into 8 mm^3 (2×2×2 mm^3) fragments under sterile conditions using a scalpel and a scalpel holder.
(§1) The plates were placed in a humidified 37° C. incubator with 5% CO2. Half of the medium was replaced every two days after culture initiation. […] Subsequently, half the media was replaced thrice weekly, cultures were split to maintain a cell density of 1×10^6 cells/mL. […] Mitochondrial markers including, Mitotracker, Mitoprobe, and 2-NBDG may also be used to assess differentiation and/or activation of cells.

[3] = Compound stability in complete RPMI with 10% human serum (mass spectrometry); type: physicochemical
Protocol: To assess compound stability, at day 1, 1 μM compound 103 or DMSO was added to complete RMPI containing 10% human serum and stored at either 4° C., 22° C. or 37° C. over an 11 day time period. Concentration of compound 103 was assessed at each indicated timepoint and storage temperature by mass spectrometry. Compound 103 was stable for at least 11 days in RPMI medium (FIG. 33).

[4] = system: human tumor-infiltrating lymphocytes (TIL); test: Flow cytometry immunophenotyping of expanded TIL (lineage and memory markers); type: cell-based; conditions: for CD4 TCM CD62L+ CCR7+, percentage of total TIL cell number on day 28: TIL1 population, alone or with IL-2
Protocol: as §1
T lymphocytes were defined based on lineage and differentiation marker expression according to the developmental model (Restifo, Blood, 124:476-477, 2014), as shown in Table 4.

[5] = system: TIL from ovarian, colon and breast cancer tissues; test: Phenotype of TIL expanded 14 days in GREX 10 flasks; type: cell-based, human; conditions: GREX 10 format, versus IL-2 alone (FIG. 26)
Protocol: TIL directly derived from fresh ovarian, colon and breast cancer tissues (fresh, n=7) obtained after 14 days' ex vivo culture of cancer tissue fragments were analyzed by flow cytometry.
TIL directly derived from fresh ovarian, colon and breast cancer tissues (fresh, n=7) obtained after 14 days' ex vivo culture of cancer tissue fragments were analyzed by flow cytometry. FIG. 26 provides FACS data showing percentages of central memory (CD45RO+CD8+) and effector memory (CD45RO+CD8-) phenotype among CD8+CD45RO+, respectively. FACS results were expressed as the mean SEM.

OT-1 CD8+ T cells = test: Ex vivo expansion and immunophenotyping of OT-1 CD8+ T cells; type: cell-based, mouse; conditions: 1 μM, three days, plate-bound anti-CD3
From the text: Antigen specific T cells from transgenic mice can be leveraged as a model for CAR T or TIL expansion ex vivo with a Cbl inhibitor. The OT-1 transgenic animals, that are commercially available, have CD8 T cells that recognize OVA peptide aa 257-264 when presented by the MHC I molecule. CD8+ T cells from OT-1 mice were isolated from a single cell suspension of splenocytes by negative selection (StemCell Technologies cat #19853 EasySep™ Mouse CD8+ T Cell Isolation Kit). Cell were then resuspended in complete media (RPMI1640, 10% heat inactivated FBS, 1× Penicillin/Streptomycin, 1× Glutamine and β-mercaptoethanol) at concentration of 0.5×10^6 per mL. Six well tissue culture plates (Falcon) were coated with 2 ug/mL of anti-mouse CD3 (Bio Xcell Cat #BE0001-1-R100 mg InVivoMAb anti-mouse CD3ε Clone: 145-2C11) for >3 hrs at 37° C. and washed with PBS (MediaTech) prior to cell addition. […] Following three days of OT-1 T cell activation and expansion the cells were collected, counted and immunophenotyped by flow cytometry by measuring expression of differentiation and additional T cell makers including: CD3, CD4, CD8, CD45, CD25, Granzyme B, CD107a, CD127, PD-1, TIM3, LAG3, KLRG-1, ICOS, TCF1, Ki67, T-bet and FOXP3.

With `C[C@@H]1CN(Cc2cc3c(c(C(F)(F)F)c2)CN(c2cccc(C4(Cc5nncn5C)COC4)c2)C3=O)CCC1(F)F` [Compound 103] the “Protection from tumor re-challenge (FIG. 21)” value (E.G7-OVA tumor cells; OT-1 cells expanded in vitro) was “potent memory cells capable of protecting mice from tumor re-challenge”, the “Number of OT-1 cells in blood 149 days after initial adoptive transfer” value (E.G7-OVA tumor cells; before re-challenge (FIG. 22A)) was “higher number in the blood” and the “Recall response, number of OT-1 cells per ml of blood” value (E.G7-OVA tumor cells; day 5 after tumor re-challenge, versus IL-2 alone (FIG. 22B)) was “significantly more rapid recall response”. For the same molecule, the “Percentage of total cell number relative to IL-2 alone on day 11” value ([1]; Donor 1, 0.1 μM Cbl-i) was 12%, the “Percentage of total cell number relative to IL-2 alone on day 11” value ([1]; Donor 1, 1.0 μM Cbl-i) was 12% and the “Percentage of total cell number relative to IL-2 alone on day 11” value ([1]; Donor 1, 10 μM Cbl-i) was 44%. The “Percentage of total cell number relative to IL-2 alone on day 11” value ([1]; Donor 2, 0.1 μM Cbl-i) was 70%, the “Percentage of total cell number relative to IL-2 alone on day 11” value ([1]; Donor 2, 1.0 μM Cbl-i) was 95% and the “Percentage of total cell number relative to IL-2 alone on day 11” value ([1]; Donor 2, 10 μM Cbl-i) was 45%. For the same molecule, the “Percentage of total cell number relative to IL-2 alone on day 11” value ([1]; Donor 3, 1.0 μM Cbl-i) was 75%, the “Percentage of total cell number relative to IL-2 alone on day 11” value ([1]; Donor 3, 10 μM Cbl-i) was 38% and the “Expansion of T cells in the absence of IL-2” value ([1]; PBMC, no IL-2) was “considerable expansion of T cells”. The “Unique CDR3s” value (breast TIL) was “increased”, the “Expansion of TIL in the absence of IL-2” value ([2]; 0.1-10 μM Cbl inhibitor, no IL-2) was “considerable expansion of TIL” and the “Percentage of total cell number relative to IL-2 alone on day 17” value ([2]; TIL1 (ovary), 0.1 μM Cbl-i) was 90%. The “Percentage of total cell number relative to IL-2 alone on day 17” value ([2]; TIL1 (ovary), 1.0 μM Cbl-i) was 75%, the “Percentage of total cell number relative to IL-2 alone on day 17” value ([2]; TIL1 (ovary), 10 μM Cbl-i) was 60% and the “Percentage of total cell number relative to IL-2 alone on day 17” value ([2]; TIL2 (ovary), 0.1 μM Cbl-i) was 30%. For the same molecule, the “Percentage of total cell number relative to IL-2 alone on day 17” value ([2]; TIL2 (ovary), 1.0 μM Cbl-i) was 26%, the “Percentage of total cell number relative to IL-2 alone on day 17” value ([2]; TIL2 (ovary), 10 μM Cbl-i) was 22% and the “Percentage of total cell number relative to IL-2 alone on day 17” value ([2]; TIL3 (ovary), 0.1 μM Cbl-i) was 30%. For the same molecule, the “Percentage of total cell number relative to IL-2 alone on day 17” value ([2]; TIL3 (ovary), 1.0 μM Cbl-i) was 43%, the “Percentage of total cell number relative to IL-2 alone on day 17” value ([2]; TIL3 (ovary), 10 μM Cbl-i) was 16% and the “Percentage of total cell number relative to IL-2 alone on day 17” value ([2]; TIL4 (colon), 0.1 μM Cbl-i) was 45%. The “Percentage of total cell number relative to IL-2 alone on day 17” value ([2]; TIL4 (colon), 1.0 μM Cbl-i) was 58%, the “Percentage of total cell number relative to IL-2 alone on day 17” value ([2]; TIL4 (colon), 10 μM Cbl-i) was 54% and the “Percentage of total cell number relative to IL-2 alone on day 17” value ([2]; TIL5 (ovary), 0.1 μM Cbl-i) was 50%. For the same molecule, the “Percentage of total cell number relative to IL-2 alone on day 17” value ([2]; TIL5 (ovary), 1.0 μM Cbl-i) was 70%, the “Percentage of total cell number relative to IL-2 alone on day 17” value ([2]; TIL5 (ovary), 10 μM Cbl-i) was 90% and the “Percentage of total cell number relative to IL-2 alone on day 17” value ([2]; TIL6 (ovary), 0.1 μM Cbl-i) was 93%. The “Percentage of total cell number relative to IL-2 alone on day 17” value ([2]; TIL6 (ovary), 1.0 μM Cbl-i) was 87%, the “Percentage of total cell number relative to IL-2 alone on day 17” value ([2]; TIL6 (ovary), 10 μM Cbl-i) was 80% and the “Stability in RPMI medium” value ([3]; 1 μM, complete RPMI with 10% human serum, 4° C., 22° C. or 37° C. (FIG. 33)) was “at least 11 days”. The “Stability at multiple temperatures (figure legend)” value ([3]; 4° C.-37° C., FIG. 33) was “stable at multiple temperatures (4° C.-37° C.) over an 11 day period”, the “CD4 TCM CD62L+ CCR7+, percentage of total TIL cell number on day 28” value ([4]; 0.1 μM Cbl-i) was 2.8% and the “CD4 TCM CD62L+ CCR7+, percentage of total TIL cell number on day 28” value ([4]; 1.0 μM Cbl-i) was 8.0%. The “Phenotype of human TIL expanded ex vivo” value ([4]; Table 5) was “TCM (CD45RO+, CD95+, CCR7+, CD62L+) or TEM (CD45RO+, CD95+, CCR7−, CD62L−) phenotype”, the “Expansion of CD8+ versus CD4+ T lymphocytes in TIL culture” value ([4]; tumor sample, FIG. 7) was “selectively expand CD8+ T lymphocytes” and the “CD8+ central memory T cells” value [5] was “increases CD8+ central memory T cells”. The “Effector function of expanded OT-1 cells (granzyme and T-bet)” value (OT-1 CD8+ T cells) was “trend of increased effector function”.

— US12594263B2, “CBL inhibitors and compositions for expansion of immune cells” (Nurix Therapeutics, Inc., priority 2019, dated 2026)
